A word on the EC50: it is the concentration at which the effect is half-maximal.

The target in the experiment is T1, human parathyroid cell Ca^2+ receptor (hPCaR) (Homo sapiens, UniProt P41180).
T1 construct: expressed in transfected cells
T1 sequence (P41180 20-1078): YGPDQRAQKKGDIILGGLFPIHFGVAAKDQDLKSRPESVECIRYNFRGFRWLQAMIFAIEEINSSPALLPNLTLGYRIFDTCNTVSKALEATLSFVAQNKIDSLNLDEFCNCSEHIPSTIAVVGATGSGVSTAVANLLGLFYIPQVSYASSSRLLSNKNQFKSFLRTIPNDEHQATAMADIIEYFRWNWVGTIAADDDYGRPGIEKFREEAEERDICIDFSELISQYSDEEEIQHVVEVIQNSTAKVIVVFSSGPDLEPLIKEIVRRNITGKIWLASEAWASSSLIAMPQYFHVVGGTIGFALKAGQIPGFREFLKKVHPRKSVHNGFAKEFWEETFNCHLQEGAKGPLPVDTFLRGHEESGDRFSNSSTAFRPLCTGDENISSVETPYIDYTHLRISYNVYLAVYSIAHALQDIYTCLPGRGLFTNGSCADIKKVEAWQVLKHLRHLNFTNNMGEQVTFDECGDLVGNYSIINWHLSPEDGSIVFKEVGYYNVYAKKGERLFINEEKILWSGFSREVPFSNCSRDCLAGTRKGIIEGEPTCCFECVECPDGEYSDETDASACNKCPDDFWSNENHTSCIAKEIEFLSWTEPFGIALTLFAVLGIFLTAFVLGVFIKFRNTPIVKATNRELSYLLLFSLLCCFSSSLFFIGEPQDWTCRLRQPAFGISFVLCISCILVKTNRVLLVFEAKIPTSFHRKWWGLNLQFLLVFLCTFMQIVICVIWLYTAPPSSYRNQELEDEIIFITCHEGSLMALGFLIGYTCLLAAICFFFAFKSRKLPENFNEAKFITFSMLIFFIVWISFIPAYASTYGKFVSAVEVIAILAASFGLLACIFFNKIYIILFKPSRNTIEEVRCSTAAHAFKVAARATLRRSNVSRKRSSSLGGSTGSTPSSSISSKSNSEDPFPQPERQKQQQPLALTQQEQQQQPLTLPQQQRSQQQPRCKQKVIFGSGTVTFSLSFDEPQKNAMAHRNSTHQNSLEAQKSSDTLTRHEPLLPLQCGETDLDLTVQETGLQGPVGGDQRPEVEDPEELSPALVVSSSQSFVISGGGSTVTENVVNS
Put plainly: [Ca2+]i measurement with fluo-3 in HEK 293 4.0-7 cells stably transfected with hPCaR. It counts as cell-based. Conditions: fluo-3 fluorescence (485/530 nm), effect on [Ca^2+]i. In short, it runs like this:
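Cytosolic [Ca2+] was read as fluo-3 fluorescence (ex 485/em 530 nm) after compound addition to washed cells. Cells were hPCaR-transfected HEK 293 clone 7, dye-loaded 30 min at 37 °C with 2 μM fluo-3 acetoxymethyl ester in HEPES-buffered saline pH 7.45 containing 1 mM CaCl2 and 0.5% BSA.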

For the molecule `Cc1ccc(-c2cccc(CN[C@H](C)c3ccccc3)c2)cn1` [(1R)-N-((3-(6-methyl-3-pyridinyl)phenyl)methyl)-1-phenylethanamine], the EC50 was no more than 10 µM.
In the case of `COc1ccc(CN[C@H](C)c2ccccc2)cc1-c1cnccn1` [Example 238, (1R)-N-((4-(methyloxy)-3-(2-pyrazinyl)phenyl)methyl)-1-phenylethanamine] it was no more than 10 µM; in that of `COc1cccc([C@@H](C)NCc2ccc(OC)c(-c3csc(C)n3)c2)c1` [(1R)-N-((4-(methyloxy)-3-(2-methyl-1,3-thiazol-4-yl)phenyl)methyl)-1-(3-(methyloxy)phenyl)ethanamine], no more than 10 µM.
In the case of `COc1cccc([C@@H](C)NCc2ccc(OC)c(-c3cnc4c(ccn4C)c3)c2)c1` [(1R)-N-((4-(methyloxy)-3-(1-methyl-1H-pyrrolo[2,3-b]pyridin-5-yl)phenyl)methyl)-1-(3-(methyloxy)phenyl)ethanamine] it was no more than 10 µM; in that of `COc1ccc(CN[C@H](C)c2ccccc2)cc1-c1ccc(Cl)cc1` [(1R)-N-((4′-chloro-6-(methyloxy)-1,1′-biphenyl-3-yl)methyl)-1-phenylethanamine], no more than 10 µM.
The molecule `COc1ccc(CN[C@H](C)c2cccc3ccccc23)cc1-c1ccc2c(c1)ncn2C` [(1R)-N-((3-(1-methyl-1H-benzimidazol-5-yl)-4-(methyloxy)phenyl)methyl)-1-(1-naphthalenyl)ethanamine] returned an EC50 of no more than 10 µM.
In the case of `COc1cccc(-c2cc(CN[C@H](C)c3cccc4ccccc34)ccc2OC)c1` [(1R)-N-((3′,6-bis(methyloxy)-1,1′-biphenyl-3-yl)methyl)-1-(1-naphthalenyl)ethanamine] it was no more than 10 µM.
With `CCOC(=O)c1ccc(-c2cc(CN[C@H](C)c3cccc4ccccc34)ccc2OC)cc1` [ethyl 2′-(methyloxy)-5′-((((1R)-1-(1-naphthalenyl)ethyl)amino)methyl)-1,1′-biphenyl-4-carboxylate], the EC50 is no more than 10 µM.
The same measure for `COc1cccc([C@@H](C)NCc2ccc(OC)c(-c3ccc(C(F)(F)F)cc3)c2)c1` [(1R)-1-(3-(methyloxy)phenyl)-N-((6-(methyloxy)-4′-(trifluoromethyl)-1,1′-biphenyl-3-yl)methyl)ethanamine]: no more than 10 µM.
With `COc1cccc([C@@H](C)NCc2cccc(-c3ccccn3)c2)c1` [(1R)-1-(3-(methyloxy)phenyl)-N-((3-(2-pyridinyl)phenyl)methyl)ethanamine], the concentration for a half-maximal effect (EC50) was no more than 10 µM.
In the case of `COc1cccc([C@@H](C)NCc2ccc(F)c(-c3ccc(F)cc3)c2)c1` [(1R)-N-((4′,6-difluoro-1,1′-biphenyl-3-yl)methyl)-1-(3-(methyloxy)phenyl)ethanamine] it was no more than 10 µM; in that of `CC(=O)Nc1ccc(-c2cccc(CN[C@H](C)c3cccc4ccccc34)c2)cn1` [N-(5-(3-((((1R)-1-(1-naphthalenyl)ethyl)amino)methyl)phenyl)-2-pyridinyl)acetamide], no more than 10 µM; in that of `Cc1ccc([C@@H](C)NCc2cccc(-c3ccc4c(c3)OCO4)c2)cc1` [(1R)-N-((3-(1,3-benzodioxol-5-yl)phenyl)methyl)-1-(4-methylphenyl)ethanamine], no more than 10 µM.
In the case of `Cc1ccc([C@@H](C)NCc2cccc(-c3ccc(F)cc3)c2)cc1` [(1R)-N-((4′-fluoro-1,1′-biphenyl-3-yl)methyl)-1-(4-methylphenyl)ethanamine] it was no more than 10 µM; in that of `COc1ccc(-c2cc(CN[C@H](C)c3ccccc3)ccc2F)cc1` [Example 465, (1R)-N-((6-fluoro-4′-(methyloxy)-1,1′-biphenyl-3-yl)methyl)-1-phenylethanamine], no more than 10 µM.
The same measure for `COc1ccc(CNC(C)c2cccc(C)c2)cc1-c1ccc(C(F)(F)F)cc1` (centres unmarked) [N-((6-(methyloxy)-4′-(trifluoromethyl)-1,1′-biphenyl-3-yl)methyl)-1-(3-methylphenyl)ethanamine]: no more than 10 µM.
Take `COc1ccc(-c2cc(CN[C@H](C)c3cccc(OC)c3)ccc2NS(C)(=O)=O)cc1` [N-(4′-(methyloxy)-5-((((1R)-1-(3-(methyloxy)phenyl)ethyl)amino)methyl)-1,1′-biphenyl-2-yl)methanesulfonamide]: the concentration for a half-maximal effect (EC50) was no more than 10 µM.
In the case of `COc1ccc(CN[C@H](C)c2ccc3ccccc3c2)cc1-c1ccc2[nH]ccc2c1` [(1R)-N-((3-(1H-indol-5-yl)-4-(methyloxy)phenyl)methyl)-1-(2-naphthalenyl)ethanamine] it was no more than 10 µM.
Molecule `COc1ccc(CN[C@H](C)c2ccc(C)cc2)cc1-c1cncnc1` [(1R)-N-((4-(methyloxy)-3-(5-pyrimidinyl)phenyl)methyl)-1-(4-methylphenyl)ethanamine] had an EC50 of no more than 10 µM.
For the molecule `COc1ccc(CN[C@H](C)c2cccc3ccccc23)cc1-c1ccc2nccn2c1` [(1R)-N-((3-imidazo[1,2-a]pyridin-6-yl-4-(methyloxy)phenyl)methyl)-1-(1-naphthalenyl)ethanamine], the 50% effective concentration (EC50) was no more than 10 µM.
In the case of `COc1ccc(-c2cccc(CN[C@H](C)c3ccc(OC)cc3)c2)cc1` [(1R)-N-((4′-(methyloxy)-1,1′-biphenyl-3-yl)methyl)-1-(4-(methyloxy)phenyl)ethanamine], the concentration for a half-maximal effect (EC50) is no more than 10 µM.
As to `COc1ccc(CN[C@H](C)c2ccc(C)cc2)cc1-c1ccccc1` [(1R)-N-((6-(methyloxy)-1,1′-biphenyl-3-yl)methyl)-1-(4-methylphenyl)ethanamine], the EC50 is no more than 10 µM.
`COc1ccc(CNC(C)c2ccc(F)cc2)cc1-c1ccc(C(F)(F)F)cc1` (centres unmarked) [1-(4-fluorophenyl)-N-((6-(methyloxy)-4′-(trifluoromethyl)-1,1′-biphenyl-3-yl)methyl)ethanamine] showed a 50% effective concentration (EC50) of no more than 10 µM.
In the case of `COc1ccc(CN[C@H](C)c2ccccc2)cc1-c1cncnc1` [(1R)-N-((4-(methyloxy)-3-(5-pyrimidinyl)phenyl)methyl)-1-phenylethanamine] it was no more than 10 µM; in that of `C[C@@H](NCc1ccc(OCC(F)(F)F)c(-c2ccc(C(F)(F)F)cc2)c1)c1cccc2ccccc12` [(1R)-1-(1-naphthalenyl)-N-((6-((2,2,2-trifluoroethyl)oxy)-4′-(trifluoromethyl)-1,1′-biphenyl-3-yl)methyl)ethanamine], no more than 10 µM; in that of `COc1ccc(CN[C@H](C)c2cccc3ccccc23)cc1-c1cnccn1` [(1R)-N-((4-(methyloxy)-3-(2-pyrazinyl)phenyl)methyl)-1-(1-naphthalenyl)ethanamine], no more than 10 µM.
The same measure for `COc1ccc(CN[C@H](C)c2ccccc2)cc1-c1cccc(C(F)(F)F)c1` [(1R)-N-((6-(methyloxy)-3′-(trifluoromethyl)-1,1′-biphenyl-3-yl)methyl)-1-phenylethanamine]: no more than 10 µM; for `COCCn1cc(-c2cc(CN[C@H](C)c3cccc4ccccc34)ccc2OC)ccc1=O` [1-(2-(methyloxy)ethyl)-5-(2-(methyloxy)-5-((((1R)-1-(1-naphthalenyl)ethyl)amino)methyl)phenyl)-2(1H)-pyridinone]: no more than 10 µM.
In the case of `CCN(CC)CCCOc1ccc(-c2cc(CN[C@H](C)c3cccc4ccccc34)ccc2OC)cn1` [N-((3-(6-((3-(diethylamino)propyl)oxy)-3-pyridinyl)-4-(methyloxy)phenyl)methyl)-N-((1R)-1-(1-naphthalenyl)ethyl)amine] it was no more than 10 µM.
